The text below walks through data of patent USRE47689E1, “Compounds for treating spinal muscular atrophy” (PTC Therapeutics, Inc., priority 2011, dated 2019).

Assay [1] has as its system SMN2 minigene (full length SMN2 minigene mRNA containing SMN2 exon 7). In words: SMN2 minigene mRNA splicing RT-qPCR assay in cultured cells. The format is cell-based, human. As to conditions: for exon 7 inclusion / SMN2mini FL mRNA relative to vehicle control: HEK293H cells with SMN2-A minigene; for exon 7 inclusion: relative to untreated cells; for SMN2mini FL mRNA relative to vehicle control: rising concentrations, 24 hr; for EC (1.5-fold): Homo sapiens, HEK293-H, HEK293H cells stably transfected with SMN2-A minigene, 24 hours, 7-point concentration curve, 1.5-fold relative to vehicle-treated cells, read-out: EC1.5x for production of full length SMN2 mRNA. A digest of the protocol: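 Full-length SMN2 minigene mRNA (exon 7 included), minigene-specific and not endogenous SMN, quantified by RT-qPCR multiplexed with GAPDH in stably transfected HEK293H cells after 24 h compound exposure at 37° C. Abundance from efficiency-corrected Ct, normalized to GAPDH and vehicle; EC1.5x reported as star bins.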

The subject of another assay is Smn protein. In words: Smn protein levels in tissues of Δ7 SMA mice of the survival study. In kind it is in vivo, mouse. As to conditions: neonatal Δ7 SMA mice; brain and muscle; treated until P47-55 (Compound 35), until P68 (Compound 626). How it is done:
Protocol. The tissue samples in Safe-Lock tubes are weighed and the volume of RIPA buffer containing the protease inhibitor cocktail is added based on the weight to volume ratios for each type of tissue: Brain (50 mg/mL), Muscle (50 mg/mL) and Spinal Cord (25 mg/mL).
Tissues are homogenized using the TissueLyzer by bead milling. 5 mm stainless steel beads are added to the sample and shaken vigorously for 5 minutes at 30 Hz in the TissueLyzer. The samples are then centrifuged for 20 minutes at 14,000×g in a microcentrifuge and the homogenates transferred to the PCR plate. […] Fluorescence for each well of the plate at 665 nm and 620 nm is measured on an EnVision multilabel plate reader (Perkin-Elmer). The total protein in the tissue homogenate is measured using the BCA assay according to the manufacturer's protocol.
The normalized fluorescence signal is calculated for each sample, Blank and vehicle control well by dividing the signal at 665 nm by the signal at 620 nm. Normalizing the signal accounts for possible fluorescence quenching due to the matrix effect of the tissue homogenate. […] The ΔF value for each tissue sample well is divided by the total protein quantity (determined using the BCA assay) for that tissue sample. […]
Protocol. […] The number of surviving mice in each group is recorded every day and plotted as a percent of total number of mice. […]

With `CC(C)NCCc1ccc2cc(-c3nc4c(Cl)cccc4s3)c(=O)oc2c1` [Cpd 35, 3-(4-chloro-1,3-benzothiazol-2-yl)-7-[2-(propan-2-ylamino)ethyl]-2H-chromen-2-one], in assay [1], the “exon 7 inclusion” value was “fully restored exon 7 inclusion relative to untreated cells”, the “SMN2mini FL mRNA relative to vehicle control” value is recorded as “increased SMN2mini FL mRNA at low concentrations” and the EC (1.5-fold) was in the range of 0.3 to 1 µM. The “Smn protein expression in tissues relative to vehicle treated and age-matched heterozygous mice” value in the assay with Smn protein is listed as “increased Smn protein expression”.

For `CCN1CCN(c2ccc3cc(-c4cn5cc(C)nc(C)c5n4)c(=O)oc3c2)C[C@@H]1C` [Cpd 626, 3-(6,8-dimethylimidazo[1,2-a]pyrazin-2-yl)-7-[(3S)-4-ethyl-3-methylpiperazin-1-yl]-2H-chromen-2-one], in assay [1], the “exon 7 inclusion” value is listed as “fully restored exon 7 inclusion relative to untreated cells”, the “SMN2mini FL mRNA relative to vehicle control” value is on record as “increased SMN2mini FL mRNA at low concentrations” and the EC (1.5-fold) was less than 0.1 µM. Besides, the “Smn protein expression in tissues relative to vehicle treated and age-matched heterozygous mice” value in the assay with Smn protein was “increased Smn protein expression”.
